Experimental data reported in patent US20220267310A1, “QUINAZOLINE AND CINNOLINE DERIVATIVES AS DNA-PK INHIBITOR” (MEDSHINE DISCOVERY INC., priority 2019, published 2022).
pIC50: −log10 of the molar value. “And” between values parts separate entries of the source, which are not always exact repeats. Equal values may be shown once.

Columns and labels:
[1] = test system: human small cell lung cancer NCI-H69 cell subcutaneous xenograft tumor; assay: NCI-H69 subcutaneous xenograft, combination with etoposide, 22-day experiment (Table 7); type: in vivo, BALB/c nude mice; details: for T/C (%) / TGI (%): 22nd day; for Tumor volume (mm^3) (0th day) / Tumor volume (mm^3) (22th day): average ± SEM
Procedure: (§1) Experiment example 3: in vivo pharmacodynamics of human small cell lung cancer NCI-H69 cell subcutaneous xenograft tumor BALB/c nude mouse model:
(§2) Experimental animals: Female BALB/c nude mice, 6-8 weeks old, weighing 15-22 grams; supplier: Shanghai Linchang Biotechnology Co., LTD. (Linchang, Shanghai)
(§3) Human small cell lung cancer NCI-H69 cells (ATCC, item number: HTB-119 and ECACC-95111733) were cultured in vitro in a culture condition of RPMI-1640 medium with 10% fetal bovine serum, 100 U/mL penicillin and 100 μg/mL streptomycin, incubated at 37° C. and 5% CO2. Conventional passage was carried out twice a week. When cell saturation was 80%-90% and the number reaches the requirement, cells were collected, counted and inoculated.
(§4) 0.2 mL (10×10^6) NCI-H69 cells (with matrix glue, and volume ratio of 1:1) were subcutaneously inoculated into a right back of each mouse, and group administration was initiated when the average tumor volume reaches about 110-120 mm^3.
(§5) The tested compound was prepared as a 5 mg/mL clarified solution with 10% DMSO+50% polyethylene glycol 400+40% water as the solvent.
(§6) The experimental indicators refers to study whether tumor growth was inhibited, delayed, or cured. Tumor diameter was measured twice a week with a vernier caliper. The calculation formula of the tumor volume was V=0.5a×b^2, and a and b represent the long diameter and short diameter of the tumor, respectively.
(§7) The antitumor efficacy of the compound was evaluated by TGI (%) or relative tumor proliferation rate T/C (%). TGI (%) reflects the tumor growth inhibition rate. The calculation of TGI (%): TGI (%)=[1−(average tumor volume at the end of administration of a certain treatment group−average tumor volume at the beginning of administration of the treatment group)/(average tumor volume at the end of treatment in solvent control group−average tumor volume at the beginning of treatment in solvent control group)]×control group.
(§8) Relative tumor proliferation rate T/C (%): the calculation formula was as follows: T/C %=[…] TRTV/CRTV group (TRTV: treatment group RTV; CRTV: negative control group RTV). According to results of tumor measurement, Relative Tumor Volume (RTV) was calculated by the formula RTV=Vt/V0, where V0 was the average tumor volume measured in group administration (i.e., d0), and Vt was the average tumor volume measured in a certain single measurement. TRTV and CRTV collect data on the same day.
(§9) Statistic analysis includes an average value and a standard error (SEM) of tumor volume at each time point for each group. […] If there was no significant difference in F value, Dunnet (2-sided) method was applied to analysis. All data were analyzed using SPSS 17.0. P<0.05 was considered as having a significant difference.

[2] = test system: human small cell lung cancer NCI-H69 xenograft tumor model; assay: NCI-H69 xenograft, mono and combination with etoposide, 24-day experiment (Table 8); type: in vivo, BALB/c nude mice; details: for Tumor volume (mm^3) (0th day) / Tumor volume (mm^3) (24th day): average ± SEM, n = 9
Procedure: as §1, §2, §3, §4, §5, §6, §7, §8, §9

PI3K (p110α/p85α) = molecular target: T1, PI3K (p110α/p85α) (Homo sapiens, UniProt P42336); assay: PI3K (p110α/p85α) kinase inhibitory activity (HTRF); type: biochemical
T1 construct: Eurofins Pharma Discovery Service (contract assay)
Procedure: (§10) This experiment was tested at Eurofins Pharma Discovery Service, Reaction Biology Corp. (RBC)
(§11) […] DNA-PK: Mg/ATP; GST-cMyc-p53; EDTA; Ser15 antibody; ATP: 10 μM; biotinylated phosphatidylinositol-3,4,5-triphosphate; GST label GRP1 PH domain; streptavidin and phycocyanin; europium-labelled monoclonal antibody against GST.
PI3K (p110α/p85α) was incubated in a determination buffer containing phosphatidylinositol 4,5-diphosphate and Mg/ATP (density as required). The reaction was initiated by adding an ATP solution. After incubating at room temperature for 30 min, a termination solution containing EDTA and biotinylated phosphatidylinositol-3,4,5-triphosphate was added to terminate the reaction. Finally, a detection buffer (containing labeled anti-GST monoclonal antibody, PH domain of GRP1 with GST label and streptavidin and phycyanin and […]) was added. Then, the board was read in time-resolved fluorescence mode, and an HTRF signal was measured according to the formula HTRF=10000×(Em665 nm/Em620 nm).

PI3K (p110σ/p85α) = molecular target: T2, PI3K (p110σ/p85α) (Homo sapiens, UniProt O00329); assay: PI3K (p110σ/p85α) kinase inhibitory activity (HTRF); type: biochemical
T2 construct: Eurofins Pharma Discovery Service (contract assay)

DNA-PK (h) = molecular target: T3, DNA-PK (h) (Homo sapiens, UniProt P78527); assay: DNA-PK kinase inhibitory activity (HTRF, Eurofins); type: biochemical; details: ATP: 10 μM
T3 construct: Eurofins Pharma Discovery Service (contract assay)
Procedure: as §10, §11
DNA-PK (h) was incubated in a determination buffer containing 50 nM GST-cMyc-p53 and Mg/ATP (density as required). The reaction was initiated by adding a mixture of Mg/ATP. After incubating at room temperature for 30 min, a termination solution containing EDTA was added to terminate the reaction. Finally, a detection buffer (containing labeled anti-GST monoclonal antibody and europium-labeled anti-phosphate Ser15 antibody against phosphorylated p53) was added. Then, the board was read in time-resolved fluorescence mode, and a Homogeneous Time Resolved Fluorescence (HTRF) signal was measured according to the formula HTRF=10000×(Em665 nm/Em620 nm).

[3] = 40 mg/kg group (+ etoposide 10 mg/kg, IP)
[4] = 40 mg/kg, PO, QD + etoposide 10 mg/kg, IP, 3-day administration, 4-day withdrawal
[5] = 40 mg/kg, PO, QD + etoposide 10 mg/kg, IP
[6] = second Embodiment 19 group of Table 7, 40 mg/kg, PO, QD + etoposide 10 mg/kg, IP
[7] = 10 mg/kg, BID + etoposide 10 mg/kg, IP
[8] = 20 mg/kg, QD + etoposide 10 mg/kg, IP
[9] = 40 mg/kg, PO, BID + etoposide 10 mg/kg, IP

T1 sequence (P42336 whole entry, species assumed): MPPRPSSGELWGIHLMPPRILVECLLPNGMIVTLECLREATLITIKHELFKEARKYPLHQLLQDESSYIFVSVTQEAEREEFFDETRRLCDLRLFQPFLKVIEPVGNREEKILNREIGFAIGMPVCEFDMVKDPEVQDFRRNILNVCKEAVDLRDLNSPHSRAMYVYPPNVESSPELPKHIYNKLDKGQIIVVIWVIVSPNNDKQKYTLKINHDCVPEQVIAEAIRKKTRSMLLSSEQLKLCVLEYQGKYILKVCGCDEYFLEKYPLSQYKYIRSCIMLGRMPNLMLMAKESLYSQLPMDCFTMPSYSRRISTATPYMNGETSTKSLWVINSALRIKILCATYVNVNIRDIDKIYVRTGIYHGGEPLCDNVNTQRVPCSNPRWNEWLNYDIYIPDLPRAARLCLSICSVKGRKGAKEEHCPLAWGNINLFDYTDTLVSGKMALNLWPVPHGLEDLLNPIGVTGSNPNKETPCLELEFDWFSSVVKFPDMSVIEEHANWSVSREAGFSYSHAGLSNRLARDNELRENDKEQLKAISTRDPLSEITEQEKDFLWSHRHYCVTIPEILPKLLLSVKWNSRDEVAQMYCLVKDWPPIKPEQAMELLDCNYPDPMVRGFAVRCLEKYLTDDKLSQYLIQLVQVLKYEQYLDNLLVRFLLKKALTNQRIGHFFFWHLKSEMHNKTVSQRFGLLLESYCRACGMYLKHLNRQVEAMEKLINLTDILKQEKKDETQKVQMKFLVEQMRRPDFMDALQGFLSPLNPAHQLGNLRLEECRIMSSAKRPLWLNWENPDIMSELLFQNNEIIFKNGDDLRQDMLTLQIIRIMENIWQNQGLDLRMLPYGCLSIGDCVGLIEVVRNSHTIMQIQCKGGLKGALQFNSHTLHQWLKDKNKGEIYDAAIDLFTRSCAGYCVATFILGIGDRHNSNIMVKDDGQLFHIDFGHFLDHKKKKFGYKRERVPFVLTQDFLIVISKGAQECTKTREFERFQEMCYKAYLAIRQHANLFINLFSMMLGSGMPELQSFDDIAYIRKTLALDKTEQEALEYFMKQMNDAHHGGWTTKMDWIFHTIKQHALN
T1 sequence (P27986 whole entry partner, species assumed): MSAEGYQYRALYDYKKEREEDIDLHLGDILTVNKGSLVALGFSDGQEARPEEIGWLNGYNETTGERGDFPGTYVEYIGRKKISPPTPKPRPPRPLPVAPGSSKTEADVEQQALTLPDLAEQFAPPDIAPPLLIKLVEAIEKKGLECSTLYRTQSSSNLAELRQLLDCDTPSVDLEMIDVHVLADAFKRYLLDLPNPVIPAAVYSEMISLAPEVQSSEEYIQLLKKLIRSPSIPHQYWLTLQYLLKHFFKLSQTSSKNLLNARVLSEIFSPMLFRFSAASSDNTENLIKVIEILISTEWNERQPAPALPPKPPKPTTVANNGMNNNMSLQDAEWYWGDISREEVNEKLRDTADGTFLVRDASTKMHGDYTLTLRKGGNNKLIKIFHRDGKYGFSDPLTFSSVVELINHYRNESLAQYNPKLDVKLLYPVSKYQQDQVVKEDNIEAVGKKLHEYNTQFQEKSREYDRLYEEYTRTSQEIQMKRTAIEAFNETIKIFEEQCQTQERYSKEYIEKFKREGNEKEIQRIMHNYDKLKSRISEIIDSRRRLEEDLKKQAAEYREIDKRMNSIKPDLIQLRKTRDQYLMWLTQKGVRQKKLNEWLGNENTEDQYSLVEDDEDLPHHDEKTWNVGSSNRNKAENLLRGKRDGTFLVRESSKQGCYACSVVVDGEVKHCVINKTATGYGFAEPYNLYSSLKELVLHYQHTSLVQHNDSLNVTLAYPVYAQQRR
T2 sequence (O00329 whole entry): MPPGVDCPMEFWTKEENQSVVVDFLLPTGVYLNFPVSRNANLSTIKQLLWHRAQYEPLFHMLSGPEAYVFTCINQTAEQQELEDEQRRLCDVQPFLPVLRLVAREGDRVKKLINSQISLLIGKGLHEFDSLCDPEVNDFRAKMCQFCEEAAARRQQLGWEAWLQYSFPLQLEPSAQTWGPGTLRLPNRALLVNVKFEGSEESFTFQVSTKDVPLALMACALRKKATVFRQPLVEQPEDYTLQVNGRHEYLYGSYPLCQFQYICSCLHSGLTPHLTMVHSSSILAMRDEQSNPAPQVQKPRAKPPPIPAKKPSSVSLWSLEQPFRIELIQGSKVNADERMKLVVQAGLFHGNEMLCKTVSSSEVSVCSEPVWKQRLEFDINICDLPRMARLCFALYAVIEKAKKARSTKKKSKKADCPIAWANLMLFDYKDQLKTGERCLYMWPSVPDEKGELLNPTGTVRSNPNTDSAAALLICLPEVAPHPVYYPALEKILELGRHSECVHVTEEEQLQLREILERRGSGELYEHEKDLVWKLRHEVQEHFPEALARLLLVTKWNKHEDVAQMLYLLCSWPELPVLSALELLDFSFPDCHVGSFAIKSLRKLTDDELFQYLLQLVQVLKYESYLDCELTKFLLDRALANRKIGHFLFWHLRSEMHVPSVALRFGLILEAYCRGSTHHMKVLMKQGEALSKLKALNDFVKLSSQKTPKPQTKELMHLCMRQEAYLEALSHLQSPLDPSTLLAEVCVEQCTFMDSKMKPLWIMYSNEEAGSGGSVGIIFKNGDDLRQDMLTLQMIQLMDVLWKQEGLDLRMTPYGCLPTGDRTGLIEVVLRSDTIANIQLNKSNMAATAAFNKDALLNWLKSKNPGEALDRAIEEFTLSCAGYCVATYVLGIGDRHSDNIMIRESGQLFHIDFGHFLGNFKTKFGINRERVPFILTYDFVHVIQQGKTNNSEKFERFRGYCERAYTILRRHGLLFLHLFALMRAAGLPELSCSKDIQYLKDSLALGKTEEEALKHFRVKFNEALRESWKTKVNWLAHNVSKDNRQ
T2 sequence (P27986 whole entry partner): as the sequence (P27986 whole entry partner, species assumed) above

## COc1ccc([C@@H](O)c2cc(-c3nncc4cc(N5CCOCC5)ccc34)c(F)cc2Cl)nn1 [Embodiment M3814, reference compound]
[1]; [3]
  Weight changes: −16.00%
[1]; [4]
  RTV (22th day): 2.96
  T/C (%): 34.40%
  TGI (%): 74% and 74.21%
  Tumor volume (mm^3) (0th day): 119 ± 13 mm^3
  Tumor volume (mm^3) (22th day): 352 ± 26 mm^3
[2]; [5]
  RTV (24th day): 3.47 ± 0.24
  T/C (%) (24th day): 43.1%
  TGI (%) (24th day): 66.1%
  Tumor volume (mm^3) (24th day): 389 ± 28 mm^3
[2]; [4]
  Tumor volume (mm^3) (0th day): 114 ± 8 mm^3
[2]; 40 mg/kg, QD, alone
  RTV (24th day): 6.77 + 0.45
  T/C (%) (24th day): 84.1%
  TGI (%) (24th day): 19.8%
  Tumor volume (mm^3) (0th day): 114 ± 8 mm^3
  Tumor volume (mm^3) (24th day): 764 ± 59 mm^3
PI3K (p110α/p85α)
  pIC50: 7.38
PI3K (p110σ/p85α)
  pIC50: 7.85
DNA-PK (h)
  pIC50: 9.00

## COc1ccc(C(O)c2cc(-c3cnnc4c(F)c(N5CCOCC5)cc(F)c34)c(F)cc2Cl)nn1 (single isomer, unassigned) [Embodiment 19]
[1]; [3]
  Weight changes: −5.88%
[1]; [4]
  RTV (22th day): 3.73
  T/C (%): 43.34%
  TGI (%): 64% and 63.98%
  Tumor volume (mm^3) (0th day): 119 ± 12 mm^3
  Tumor volume (mm^3) (22th day): 444 ± 34 mm^3
[1]; 80 mg/kg group (+ etoposide 10 mg/kg, IP)
  Weight changes: 0.13%
[1]; 80 mg/kg, PO, QD + etoposide 10 mg/kg, IP, 3-day administration, 4-day withdrawal
  TGI: 80%
[1]; [6]
  RTV (22th day): 2.51
  T/C (%): 29.20%
  TGI (%): 80.09%
  Tumor volume (mm^3) (22th day): 299 ± 31 mm^3
[1]; second Embodiment 19 group of Table 7, 40 mg/kg, PO, QD + etoposide 10 mg/kg, IP, 3-day administration, 4-day withdrawal
  Tumor volume (mm^3) (0th day): 119 ± 12 mm^3
[2]; [7]
  RTV (24th day): 4.93 ± 0.42
  T/C (%) (24th day): 61.2%
  TGI (%) (24th day): 46.5%
  Tumor volume (mm^3) (24th day): 548 ± 44 mm^3
[2]; 10 mg/kg, BID + etoposide 10 mg/kg, IP, 3-day administration, 4-day withdrawal
  Tumor volume (mm^3) (0th day): 114 ± 9 mm^3
[2]; [8]
  RTV (24th day): 4.08 ± 032
  T/C (%) (24th day): 50.6%
  TGI (%) (24th day): 56.8%
  Tumor volume (mm^3) (24th day): 464 ± 41 mm^3
[2]; 20 mg/kg, QD + etoposide 10 mg/kg, IP, 3-day administration, 4-day withdrawal
  Tumor volume (mm^3) (0th day): 114 ± 7 mm^3
[2]; 40 mg/kg, BID, alone
  RTV (24th day): 6.91 ± 0.18
  T/C (%) (24th day): 85.8%
  TGI (%) (24th day): 16.8%
  Tumor volume (mm^3) (0th day): 114 ± 7 mm^3
  Tumor volume (mm^3) (24th day): 789 ± 49 mm^3
[2]; [9]
  RTV (24th day): 2.28 ± 0.26
  T/C (%) (24th day): 28.4%
  TGI (%) (24th day): 81.5%
  Tumor volume (mm^3) (24th day): 264 ± 37 mm^3
[2]; 40 mg/kg, PO, BID + etoposide 10 mg/kg, IP, 3-day administration, 4-day withdrawal
  Tumor volume (mm^3) (0th day): 114 ± 10 mm^3
[2]; [5]
  RTV (24th day): 3.11 ± 0.18
  T/C (%) (24th day): 38.6%
  TGI (%) (24th day): 70.5%
  Tumor volume (mm^3) (24th day): 353 ± 33 mm^3
[2]; [4]
  Tumor volume (mm^3) (0th day): 114 ± 7 mm^3
PI3K (p110α/p85α)
  pIC50: 6.32
PI3K (p110σ/p85α)
  pIC50: 6.22
DNA-PK (h)
  pIC50: 8.68
